Laboratory results taken from US8637463B2, “Peptide inhibiting angiotensin converting enzyme” (Meiji Dairies Corporation, priority 2003, dated 2014).
Where a SMILES comes first, the peptide text is derived from it. Where no end group is shown, it is not given here.

Tests used:
[1] = target: Angiotensin Converting Enzyme (Homo sapiens, UniProt P12821); experiment: ACE inhibitory activity with Hippuryl-His-Leu substrate, absorbance at 228 nm; type: biochemical
Experimental: Each of the peptides of SEQ ID NOs:1 to 7 was synthesized using an automatic peptide synthesizer. It was confirmed by reverse phase HPLC that the purity of each of the thus obtained peptides is 95%. Each of these synthetic peptides was dissolved in 0.1 M borate buffer (pH 8.3). Subsequently, 0.1 ml of an enzyme solution (Angiotensin Converting Enzyme: 2 units/ml) and 0.04 ml of each of the sample solutions were mixed therewith, followed by heating to 37° C. A 0.1 ml portion of a substrate solution (Hippuryl-His-Leu; N-Benzoyl-Gly-His-Leu) was added thereto, followed by thorough stirring. After allowing the mixture to react at 37° C. for 60 minutes, the reaction was stopped by adding 0.13 ml of 1 N hydrochloric acid. Then, 0.85 ml of ethyl acetate was added thereto, followed by shaking for 1 minute, and then the mixture was centrifuged at 3,000 rpm for 10 minutes. A 0.7 ml portion of the supernatant was recovered, and the solvent was removed using a centrifugal evaporator (about 30 minutes). The residual matters were dissolved by adding 0.5 ml of distilled water, and the absorbance at a wavelength of 228 nm was measured.
The activity of inhibiting ACE (%) was calculated by the following mathematical expression 1. Activity of inhibiting ACE(%)={(A−B)−(C−D)}/(A−B)×100 Mathematical expression 1
In this connection, A in the expression is absorbance of the control when the enzyme is used, B is the absorbance of the control when the enzyme is not used, C is absorbance of the sample when the enzyme is used, and D is absorbance of the sample when the enzyme is not used. In addition, 0.1 M borate buffer was used in the control instead of the sample solution.
Based on the thus obtained ACE inhibitory activities, IC50 of each peptide was calculated.
ACE inhibitory activities (%) of the 4 peptides, Leu-Met-Ala-Pro (SEQ ID NO:4), Arg-Met-Ala-Pro (SEQ ID NO:5), Met-Ala-Pro-Pro (SEQ ID NO:6) and Arg-Met-Ala-Pro-Pro (SEQ ID NO:7), which have Met-Ala-Pro as a partial structure, were obtained by the same method of Example 2, and their IC50's were calculated.

ACE = ACE (Homo sapiens, UniProt P12821); details: known ACE-inhibiting peptides from casein and corn protein α-zein; cited from earlier work
ACE, sequence (P12821 30-1306, species assumed): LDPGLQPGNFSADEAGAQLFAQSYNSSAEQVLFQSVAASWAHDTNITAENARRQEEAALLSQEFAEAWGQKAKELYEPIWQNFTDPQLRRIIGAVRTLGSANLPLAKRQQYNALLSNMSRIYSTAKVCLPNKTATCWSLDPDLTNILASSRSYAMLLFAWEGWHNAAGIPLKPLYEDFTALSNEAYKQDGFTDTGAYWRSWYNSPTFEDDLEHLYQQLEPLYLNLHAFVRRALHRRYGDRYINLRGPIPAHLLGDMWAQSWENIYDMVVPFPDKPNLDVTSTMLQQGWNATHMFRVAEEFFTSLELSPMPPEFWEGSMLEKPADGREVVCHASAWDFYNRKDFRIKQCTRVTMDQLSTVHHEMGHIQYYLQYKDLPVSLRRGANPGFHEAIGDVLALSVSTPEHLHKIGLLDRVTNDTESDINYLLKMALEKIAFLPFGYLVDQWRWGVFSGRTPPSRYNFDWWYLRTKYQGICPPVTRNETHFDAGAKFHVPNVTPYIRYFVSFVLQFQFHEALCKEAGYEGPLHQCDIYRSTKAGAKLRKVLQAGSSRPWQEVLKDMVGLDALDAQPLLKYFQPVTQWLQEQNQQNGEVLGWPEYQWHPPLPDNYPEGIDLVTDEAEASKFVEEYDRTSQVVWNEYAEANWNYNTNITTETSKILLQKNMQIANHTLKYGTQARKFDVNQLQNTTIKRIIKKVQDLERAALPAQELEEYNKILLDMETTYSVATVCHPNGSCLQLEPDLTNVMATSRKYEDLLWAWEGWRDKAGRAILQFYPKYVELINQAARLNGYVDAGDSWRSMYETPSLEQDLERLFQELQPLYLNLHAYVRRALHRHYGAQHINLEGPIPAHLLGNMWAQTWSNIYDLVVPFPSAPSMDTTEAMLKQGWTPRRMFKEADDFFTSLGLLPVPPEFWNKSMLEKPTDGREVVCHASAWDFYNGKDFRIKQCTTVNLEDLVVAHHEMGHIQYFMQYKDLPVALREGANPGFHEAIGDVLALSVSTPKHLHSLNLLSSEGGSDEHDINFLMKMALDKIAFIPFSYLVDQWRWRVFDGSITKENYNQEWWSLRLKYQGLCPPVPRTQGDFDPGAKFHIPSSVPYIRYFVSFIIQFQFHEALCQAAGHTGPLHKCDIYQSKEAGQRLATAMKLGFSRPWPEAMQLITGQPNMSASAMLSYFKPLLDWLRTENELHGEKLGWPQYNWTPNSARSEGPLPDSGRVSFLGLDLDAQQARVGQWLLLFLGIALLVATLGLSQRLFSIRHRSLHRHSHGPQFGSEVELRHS

[2] = synthetic peptide, 0.1 M borate buffer pH 8.3, 37° C., 60 minutes, Table 1
[3] = peptides having Met-Ala-Pro as a partial structure, same method as Example 2, Table 2

Angiotensin Converting Enzyme, sequence (P12821 30-1306, species assumed): as above

| IC50 [1, 3] [µM] | Compound | IC50 (ACE) [µM] | other results |
| --- | --- | --- | --- |
|  | CC[C@H](C)[C@H](N)C(=O)N[C@@H](Cc1c[nH]cn1)C(=O)N[C@@H](C)C(=O)O [Ile-His-Ala] (H-Ile-His-Ala-OH; N-terminus and C-terminus assumed) |  | IC50 [1, 2]: 394 µM |
|  | CC[C@H](C)[C@H](N)C(=O)N[C@@H](CCC(N)=O)C(=O)N[C@@H](C)C(=O)O [Ile-Gln-Ala] (H-Ile-Gln-Ala-OH; N-terminus and C-terminus assumed) |  | IC50 [1, 2]: 64.1 µM |
|  | Ile-Pro-Pro [IPP, casein-derived peptide] | 5 |  |
|  | Val-Ala-Pro [VAP, casein-derived peptide] | 2 |  |
|  | Val-Pro-Pro [VPP] | 9 |  |
|  | Leu-Gln-Pro [LQP, corn protein α-zein-derived peptide] | 2 |  |
| 27.9 | CSCC[C@H](NC(=O)[C@@H](N)CC(C)C)C(=O)N[C@@H](C)C(=O)N1CCC[C@H]1C(=O)O [Leu-Met-Ala-Pro] (H-LMAP-OH; N-terminus and C-terminus assumed) |  |  |
| 28.3 | CSCC[C@H](N)C(=O)N[C@@H](C)C(=O)N1CCC[C@H]1C(=O)N1CCC[C@H]1C(=O)O [Met-Ala-Pro-Pro] (H-MAPP-OH; N-terminus and C-terminus assumed) |  |  |
| 255 | RMAPP [Arg-Met-Ala-Pro-Pro] |  |  |
| 24 | CSCC[C@H](NC(=O)[C@@H](N)CCCNC(=N)N)C(=O)N[C@@H](C)C(=O)N1CCC[C@H]1C(=O)O [Arg-Met-Ala-Pro] (H-RMAP-OH; N-terminus and C-terminus assumed) |  |  |
